Source: publication PMC8626775, “Anti-schistosomal activities of quinoxaline-containing compounds: From hit identification to lead optimisation” (European Journal of Medicinal Chemistry, 2021)
Where “and” joins values, the source holds several entries; their conditions need not be identical. Equal values may be shown once. Read-outs that look alike come from different tables or passages of the source.

Key:
S. mansoni schistosomula = S. mansoni schistosomula high-throughput phenotype and motility screen (Roboworm), 72 h; type: cell-based, Schistosoma mansoni; conditions: Schistosoma mansoni
Procedure: Cercariae derived from the NMRI ([…]) Puerto Rican strain (PR-1) of S. mansoni were shed from two Biomphalaria glabrata strains, the NMRI albino and pigmented outbred strains, under intensified lighting conditions (1 h of incubation at 26 °C). Cercariae were then mechanically transformed into schistosomula as previously described.
High-throughput screening (HTS) of selected compounds was conducted as previously described. Briefly, newly transformed schistosomula were distributed in a 384-well tissue culture plate (PerkinElmer, cat 6007460, seeding density of 120 parasites/well). Each compound (at a single concentration or two-fold titrations) was transferred into individual wells alongside the positive and negative controls (AUR at 10 μM final concentration in 0.625% DMSO and 0.625% DMSO, respectively). Schistosomula/compound co-cultures were then incubated at 37 °C for 72 h in a humidified atmosphere containing 5% CO2. Following the co-culture period, automatic assessment of compound-induced schistosomula motility and phenotypic changes were conducted with the high-content imaging platform Roboworm using the image analysis model previously described by Paveley et al..

S. mansoni adult worms = assay: S. mansoni adult worm motility screen (WormassayGP2), 72 h; type: cell-based, Schistosoma mansoni; conditions: Schistosoma mansoni
From the text: Mice (Mus musculus HsdOLa:TO - Tuck Ordinary; Envigo, UK) were used for the mammalian-specific propagation of the S. mansoni life cycle. Experimental animals were infected with 4000 or 180 S. mansoni cercariae/mouse and perfused three- or seven-weeks post-infection to obtain S. mansoni juvenile or adult worms, respectively. Preparation steps following perfusion have been described previously. Briefly, the parasite material was washed three times with pre-warmed adult worm media (DMEM (Gibco, Paisley, UK) supplemented with 10% (v/v) Fetal Calf Serum (FCS, Gibco, Paisley, UK), 1% (v/v) L-glutamine (Gibco, Paisley, UK) and an antibiotic mixture (150 Units/ml penicillin and 150 μg/ml streptomycin; Gibco, UK)) to remove residual host contamination and incubated in a humidified environment containing 5% CO2 at 37 °C for at least 1 h.
For the evaluation of anti-schistosomal activity on the adult stage of the parasite, 7-wk old worms were transferred into 48 well tissue culture plates (1–3 worm pairs/well, in duplicate). […] DMSO (0.5%) and praziquantel (10 μM in 0.5% DMSO) were also included as negative and positive control treatments. Treated adult worms were incubated for 72 h in a humidified environment containing 5% CO2 at 37 °C. Parasite motility after compound treatment was assessed by a digital image processing-based system (WormassayGP2), modified after Wormassay. Following compound-parasite co-incubation, eggs were collected, fixed in formalin (10% v/v formaldehyde) and enumerated aiming to collect further information on any compound-induced effects on parasite fecundity and IVLE production.

HepG2 cells = assay: HepG2 MTT cytotoxicity assay; conditions: for Selectivity Index (SI) Adult worms: HepG2 CC50 versus adult worm EC50; for Selectivity Index (SI) Somula: HepG2 CC50 versus schistosomula EC50; for Toxicity on HepG2 in words: 24 h
Procedure: Initially the cells were handled under sterile conditions and grown at 37 °C in a humidified atmosphere containing 5% CO2. Cytotoxicity was evaluated by way of a 3-(4, 5- dimethylthiazol-2-yl)-2,5-diphenyl tetrazolium bromide (MTT) assay as previously described. The cells were counted in a dual chamber counting slide using the BIORAD TC-10 Automated cell counter, seeded in a 96-well plate (Fisher Scientific, Loughborough, UK) at a density of 2 × 10^4 cells/well and incubated in an atmosphere of 5% CO2 at 37 °C. […] The absorbance readings (at 570 nm) of the soluble formazan crystals were recorded using PolarStar Omega plate reader (BMG-Labtech). […] The latter was used to calculate the selectivity index (SI) of the compounds presented herein.

[1] = system: adult S. japonicum male worms; assay: In vitro screening of S. japonicum adults at 100 nM (WormAssay motility, descriptors, severity score); type: cell-based, Schistosoma japonicum; conditions: for Effect on S. japonicum adult male worms: 5, 24, 48 and 72 h; for SEVERITY SCORES 5 h / SEVERITY SCORES 24 h / SEVERITY SCORES 48 h / DESCRIPTORS 48 h / SEVERITY SCORES 72 h / DESCRIPTORS 72 h: S. japonicum; for SEVERITY SCORES 5 h / SEVERITY SCORES 24 h / SEVERITY SCORES 48 h / SEVERITY SCORES 72 h: max = 4, one line per replicate; for DESCRIPTORS 48 h / DESCRIPTORS 72 h: one line per replicate
Procedure: (§1) For each species, parasite recovery involved reverse perfusion of the hepatic portal and mesenteric system using DMEM (Fisher Scientific). Parasites were washed six times with Basch 169 medium supplemented with 100 U/ml penicillin and 100 μg/ml streptomycin before manually distributing approximately 5 males per well (on occasion 1 or 2 females might also be present) of a 24-well plate (Corning Costar 3524). […] The next morning, a final concentration of 100 nM compound (in 1 μL DMSO) was added to each well and the final volume made up to 2 ml with Basch 169 medium supplemented with antibiotics and FBS. Each compound was tested in triplicate (except for some instances tested in duplicate). […] The phenotypic characterisation of compound effects focused on male worms due to the greater range of their motility characteristics that include flexing, bending, stretching, sucker walking and adherence, compared to the more sedentary female worms. In addition to descriptors, WormAssay, as adapted for the schistosome, was used to measure average worm motility per well [72, 73].

[2] = system: Adult S. haematobium worms; assay: In vitro screening of S. haematobium adults at 100 nM (WormAssay motility, descriptors, severity score); type: cell-based, Schistosoma haematobium
Procedure: as §1

[3] = 72 h, Table 2, average of phenotype and motility EC50, 72 h, read-out: Activity on schistosomula (EC50, μM - 72 h) Average
[4] = 72 h, Table 2, motility, 72 h, three replicate titrations (0.313–10 μM), read-out: Activity on schistosomula (EC50, μM - 72 h) M
[5] = 72 h, Table 2, phenotype, 72 h, three replicate titrations (0.313–10 μM), read-out: Activity on schistosomula (EC50, μM - 72 h) P
[6] = Table 4, Series A, read-out: Anti-schistosomal activity EC50 Schistosomula (μM) Motility
[7] = Table 4, Series A, read-out: Anti-schistosomal activity EC50 Schistosomula (μM) Phenotype
[8] = Table 4, Series A, read-out: Anti-schistosomal activity EC50 Adult (nM) Motility
[9] = Table 2, 72 h, titrations 0.0095–5 μM, WormassayGP2, read-out: Activity on adult worms (EC50, μM - 72 h) Motility
[10] = Table 5, Series C, read-out: Anti-schistosomal activity EC50 Schistosomula (μM) Motility
[11] = Table 5, Series C, read-out: Anti-schistosomal activity EC50 Schistosomula (μM) Phenotype
[12] = Table 5, Series C, read-out: Anti-schistosomal activity EC50 Adult (nM) Motility

SMILES | EC50 (S. mansoni schistosomula; [3]) | EC50 (S. mansoni schistosomula; [4]) | EC50 (S. mansoni schistosomula; [5]) | EC50 (S. mansoni schistosomula; [6]) | EC50 (S. mansoni schistosomula; [7]) | EC50 (S. mansoni adult worms; [8]) | EC50 (S. mansoni adult worms; [9]) | EC50 (S. mansoni schistosomula; [10]) | EC50 (S. mansoni schistosomula; [11]) | EC50 (S. mansoni adult worms; [12]) | Selectivity Index (SI) Adult worms (HepG2 cells) | Selectivity Index (SI) Somula (HepG2 cells) | Effect on S. japonicum adult male worms [1] | SEVERITY SCORES 5 h [1] | SEVERITY SCORES 24 h [1] | SEVERITY SCORES 48 h [1] | DESCRIPTORS 48 h [1] | SEVERITY SCORES 72 h [1] | DESCRIPTORS 72 h [1] | Toxicity on HepG2 in words (HepG2 cells) | also measured
O=[N+]([O-])c1ccc2nc(Nc3cccc(Cl)c3)c(Nc3cccc(Cl)c3)nc2c1 [Compound 25, N^2, N^3-bis(3-chlorophenyl)-6-nitroquinoxaline-2,3-diamine] | 1.26 µM | 1.3 µM | 1.22 µM | 1.3 µM | 1.22 µM | 12 nM | 12 nM | – | – | – | 47.99 | 0.46 | decreased motility starting at 48 h | 0 | 0 | 2 | S, on sides | 2 | S+, on sides | – | –
O=[N+]([O-])c1ccc2nc(Nc3cccc(C(F)(F)F)c3)c(Nc3cccc(C(F)(F)F)c3)nc2c1 [Compound 30, 6-nitro-N2, N3-bis(3-(trifluoromethyl)phenyl)quinoxaline-2,3-diamine] | 0.38 µM | 0.43 µM | 0.34 µM | 0.43 µM | 0.34 µM | 2.59 nM | 2.59 nM | – | – | – | 348 and 347.59 | 2.36 | decreased motility starting at 48 h | 0 | 0 | 2 and 1 | S, on sides and S | 2 and 1 | S, on sides and S+ | – | Effect on S. haematobium adult worms ([2]; 5, 24, 48 and 72 h): relatively mild effects; SEVERITY SCORES 5 h ([2]; S. haematobium, 5 h, max = 4, one line per replicate): 0; SEVERITY SCORES 24 h ([2]; S. haematobium, 24 h, max = 4, one line per replicate): 0; SEVERITY SCORES 48 h ([2]; S. haematobium, 48 h, max = 4, one line per replicate): 1 and 2; DESCRIPTORS 48 h ([2]; S. haematobium, 48 h, one line per replicate): S-unc, on sides; SEVERITY SCORES 72 h ([2]; S. haematobium, 72 h, max = 4, one line per replicate): 2; DESCRIPTORS 72 h ([2]; S. haematobium, 72 h, one line per replicate): S-unc, on sides
O=[N+]([O-])c1ccc2nc(Nc3ccc(F)cc3)c(Nc3ccc(F)cc3)nc2c1 [Compound 28, N2, N3-bis(4-fluorophenyl)-6-nitroquinoxaline-2,3-diamine] | 1.77 µM | 1.4 µM | 2.14 µM | 1.4 µM | 2.14 µM | 382 nM | 382 nM | – | – | – | – | – | – | – | – | – | – | – | – | low toxicity | –
O=[N+]([O-])c1ccc2nc(Nc3ccc(F)c(C(F)(F)F)c3)c(Nc3ccc(F)c(C(F)(F)F)c3)nc2c1 [Compound 32, N2, N3-bis(4-fluoro-3-(trifluoromethyl)phenyl)-6-nitroquinoxaline-2,3-diamine] | 0.72 µM | 0.54 µM | 0.89 µM | 0.54 µM | 0.89 µM | 11 nM | 11 nM | – | – | – | 60.99 | 0.94 | – | – | – | – | – | – | – | – | –

Now from value to compound, other results behind:

EC50 (S. mansoni schistosomula; [3]) | EC50 (S. mansoni schistosomula; [4]) | EC50 (S. mansoni schistosomula; [5]) | EC50 (S. mansoni schistosomula; [6]) | EC50 (S. mansoni schistosomula; [7]) | EC50 (S. mansoni adult worms; [8]) | EC50 (S. mansoni adult worms; [9]) | EC50 (S. mansoni schistosomula; [10]) | EC50 (S. mansoni schistosomula; [11]) | EC50 (S. mansoni adult worms; [12]) | SMILES | Selectivity Index (SI) Adult worms (HepG2 cells) | Selectivity Index (SI) Somula (HepG2 cells) | Effect on S. japonicum adult male worms [1] | SEVERITY SCORES 5 h [1] | SEVERITY SCORES 24 h [1] | SEVERITY SCORES 48 h [1] | DESCRIPTORS 48 h [1] | SEVERITY SCORES 72 h [1] | DESCRIPTORS 72 h [1] | Toxicity on HepG2 in words (HepG2 cells) | also measured
1.41 µM | 1.8 µM | 1.02 µM | – | – | – | 318 nM | 1.8 µM | 1.02 µM | 318 nM | CCCCCC(=O)Nc1ccc2nc(Nc3ccc(Cl)c(Cl)c3)c(Nc3ccc(Cl)c(Cl)c3)nc2c1 [Compound 22d, N-(2,3-bis((3,4-dichlorophenyl)amino)quinoxalin-6-yl)hexanamide] | 7.65 | 1.72 | – | – | – | – | – | – | – | low toxicity | –
2.91 µM | 2.79 µM | 3.04 µM | – | – | – | 704 nM | 2.79 µM | 3.04 µM | 704 nM | CC(=O)Nc1ccc2nc(Nc3ccc(Cl)c(Cl)c3)c(Nc3ccc(Cl)c(Cl)c3)nc2c1 [Compound 22c, N-(2,3-bis((3,4-dichlorophenyl)amino)quinoxalin-6-yl)acetamide] | 6.52 | 1.57 | – | – | – | – | – | – | – | – | EC50 (S. mansoni schistosomula; 72 h, read-out: EC50 on schistosomula (bounds and ranges given)): > 2 µM
